Consider 20 molecules from Sander's compilation of Henry's law constants (doi:10.1021/je00026a010).

A short description of this data set: Henry solubility constant Hcp at 298.15 K (mol/(m3 Pa)). As to conditions: reference: Leighton and Calo (1981).
In the case of `CCCCCl` [1-chlorobutane], the “Henry solubility constant Hcp” value turned out to be 0.00059.

In the case of `Clc1ccccc1` [chlorobenzene], the “Henry solubility constant Hcp” value is 0.003.

Regarding `CCCCCCl` [1-chloropentane], the “Henry solubility constant Hcp” value is 0.00041.

Take `CC(Cl)CCl` (stereo not given) [1,2-dichloropropane]: the “Henry solubility constant Hcp” value is 0.0034.

Take `Cc1ccccc1` [methylbenzene]: the “Henry solubility constant Hcp” value is 0.0015.

Consider `ClC=C(Cl)Cl` [trichloroethene], for which the “Henry solubility constant Hcp” value was 0.001.

In the case of `ClCCCCl` [1,3-dichloropropane], the “Henry solubility constant Hcp” value came out at 0.01.

In the case of `ClC(Cl)(Cl)Cl` [tetrachloromethane], the “Henry solubility constant Hcp” value came out at 0.00036.

With `ClCCCCCl` [1,4-dichlorobutane], the “Henry solubility constant Hcp” value was 0.02.

As to `CC(Cl)(Cl)Cl` [1,1,1-trichloroethane], the “Henry solubility constant Hcp” value turned out to be 0.00049.

On to `ClC(Cl)=C(Cl)Cl` [tetrachloroethene], for which the “Henry solubility constant Hcp” value stood at 0.00061.

As to `ClCC(Cl)CCl` [1,2,3-trichloropropane], the “Henry solubility constant Hcp” value amounted to 0.029.

Turning to `CCCCCCCl` [1-chlorohexane], the “Henry solubility constant Hcp” value was found to be 0.00041.

Turning to `ClCC(Cl)Cl` [1,1,2-trichloroethane], the “Henry solubility constant Hcp” value is 0.012.

As to `ClCCl` [dichloromethane], the “Henry solubility constant Hcp” value came to 0.003.

As for `c1ccccc1` [benzene], the “Henry solubility constant Hcp” value turned out to be 0.0018.

As for `CCC(C)Cl` (stereo not given) [2-chlorobutane], the “Henry solubility constant Hcp” value amounted to 0.00041.

Consider `ClCCCCCCl` [1,5-dichloropentane], for which the “Henry solubility constant Hcp” value turned out to be 0.018.

Turning to `ClC(Cl)C(Cl)Cl` [1,1,2,2-tetrachloroethane], the “Henry solubility constant Hcp” value stood at 0.027.

For `C=C(Cl)Cl` [1,1-dichloroethene], the “Henry solubility constant Hcp” value stood at 0.00026.
